Experimental data as given in ChEMBL document CHEMBL5380877, “Azulene as a biphenyl mimetic in orexin/hypocretin receptor agonists” (Bioorg Med Chem, 2023).

biological target: T1, Orexin receptor type 2 (Homo sapiens, UniProt O43614); experiment: Antagonist activity at human OX2 receptor expressed in CHO cells assessed as reduction in orexin-A induced calcium level at 10 uM incubated for 24 hrs by FLIPR calcium 4 assay; type: functional, cell-based
T1 sequence (O43614 whole entry): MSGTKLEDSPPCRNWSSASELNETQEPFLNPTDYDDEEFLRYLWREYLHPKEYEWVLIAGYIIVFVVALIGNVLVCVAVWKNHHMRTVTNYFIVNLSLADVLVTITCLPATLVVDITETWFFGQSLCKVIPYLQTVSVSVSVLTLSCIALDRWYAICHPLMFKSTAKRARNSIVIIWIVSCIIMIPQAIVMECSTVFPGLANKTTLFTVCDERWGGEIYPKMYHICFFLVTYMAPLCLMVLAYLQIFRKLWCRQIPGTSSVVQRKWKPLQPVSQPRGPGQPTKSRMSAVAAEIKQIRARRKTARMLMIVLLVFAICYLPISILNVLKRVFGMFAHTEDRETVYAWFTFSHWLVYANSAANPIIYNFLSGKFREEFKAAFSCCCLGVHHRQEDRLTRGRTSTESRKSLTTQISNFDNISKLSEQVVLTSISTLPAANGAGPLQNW

SMILES	Ki [µM]
CN(C)C(=O)c1ccc2ccc(C(=O)N(C)C)c-2cc1	> 10
Cc1ccc2c(C(=O)N(C)C)cc(S(=O)(=O)Nc3cccc(N(CCNC(=O)c4cccc(C)c4)C(=O)C(F)(F)F)c3)c-2cc1	> 10
CN(C)C(=O)c1ccc2ccc(C(=O)C(F)(F)F)c-2cc1	> 10
Cc1cccc(C(=O)NCCN(C(=O)C(F)(F)F)c2cccc(NS(=O)(=O)c3cc(C(=O)C(F)(F)F)c4ccc(C(=O)N(C)C)ccc3-4)c2)c1	> 10
Cc1ccc2c(C(=O)N(C)C)cc(S(=O)(=O)O)c-2cc1	> 10
Cc1ccc2c(C(=O)C(F)(F)F)cc(S(=O)(=O)O)c-2cc1	> 10
Cc1cccc(C(=O)NCCNc2cccc(NS(=O)(=O)c3cc(C(=O)C(F)(F)F)c4ccc(C(=O)N(C)C)ccc3-4)c2)c1	> 10
CN(C)C(=O)c1ccc2c(C(=O)N(C)C)cc(S(=O)(=O)O)c-2cc1	> 10
Cc1ccc2c(C(=O)C(F)(F)F)cc(S(=O)(=O)Nc3cccc(NCCNC(=O)c4cccc(C)c4)c3)c-2cc1	5

biological target: T2, Orexin/Hypocretin receptor type 1 (Homo sapiens, UniProt O43613); experiment: Agonist activity at human OX1 receptor expressed in CHO cells assessed as increase in Ca2+ accumulation level measured after 24 hrs by FLIPR calcium 4 assay; type: functional, cell-based
T2 sequence (O43613 whole entry): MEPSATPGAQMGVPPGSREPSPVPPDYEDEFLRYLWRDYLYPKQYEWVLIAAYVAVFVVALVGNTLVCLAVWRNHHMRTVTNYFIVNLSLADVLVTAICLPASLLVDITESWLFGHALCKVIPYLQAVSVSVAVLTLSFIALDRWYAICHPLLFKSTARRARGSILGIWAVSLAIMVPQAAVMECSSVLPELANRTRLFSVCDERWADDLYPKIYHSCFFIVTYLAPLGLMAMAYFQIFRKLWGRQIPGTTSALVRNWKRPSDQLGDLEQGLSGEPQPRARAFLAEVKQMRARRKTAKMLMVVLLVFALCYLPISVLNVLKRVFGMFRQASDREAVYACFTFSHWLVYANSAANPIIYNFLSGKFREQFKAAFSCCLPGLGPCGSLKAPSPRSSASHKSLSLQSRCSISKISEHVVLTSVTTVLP

SMILES	EC50 [µM]
Cc1ccc2c(C(=O)N(C)C)cc(S(=O)(=O)Nc3cccc(NCCNC(=O)c4cccc(C)c4)c3)c-2cc1	1.62

biological target: T2, Orexin/Hypocretin receptor type 1; experiment: Antagonist activity at human OX1 receptor expressed in CHO cells assessed as reduction in orexin-A induced calcium level at 10 uM incubated for 24 hrs by FLIPR calcium 4 assay; type: functional, cell-based

SMILES	Ki [µM]
Cc1ccc2c(C(=O)N(C)C)cc(S(=O)(=O)Nc3cccc(NCCNC(=O)c4cccc(C)c4)c3)c-2cc1	4
